Data from patent publication US20250375457A1, “TOPICAL PHARMACEUTICAL COMPOSITIONS AND USES THEREOF” (Shenzhen Pharmacin Co., Ltd., priority 2022, published 2025).
Read-outs that look alike come from different tables or passages of the source.

Legend:
[1] = cited from earlier work
[2] = system: British guinea pigs; format: in vivo; details: single skin application 0.2 mL/site, irradiation 10±1 J/cm^2, observed to 72 hours
Procedure: Phototoxicity of midostaurin cream was tested using British guinea pigs as a model. Male guinea pigs were randomly divided into groups and given a single skin application of physiological saline (negative control), 8-MOP (positive control), 1.0% midostaurin cream, and midostaurin cream blank matrix. The dose given is 0.2 mL/site and the administration site was fixed after the treatment was applied. After 0.5 hours, the administration site was irradiated by the sunlight simulator of Dr. Hönle AG (SOL500) to reach the specified irradiation amount of 10±1 J/cm^2. The irradiance was measured with a UV radiometer equipped with type UVA FO from Dr. Hönle AG. The first day of dosing is designated as day 1 of the trial (Day 1). After the irradiation, the skin irritation of the administration site was observed and scored at 1+0.5 hours, 24 hours, 48 hours and 72 hours, respectively.

[3] = Solubility of midostaurin in solubilizer-water mixture systems; format: physicochemical; details: solubilizer-water mixtures, aqueous with cosolvent or surfactant or cyclodextrin, thermodynamic from solid, Transcutol, Labrasol, Tween 80, Cremphor EL, Kolliphor HS15 at 10%, 20%, 30% v/v in water, 25° C.
Procedure: The solubility of midostaurin in a system with water and a solubilizer combined at a certain ratio was also evaluated. The method involves adding excess amorphous midostaurin powders into various concentrations of solubilizer and water systems and mixed for 24 hours at 25° C. with 600 rpm to ensure equilibrium was achieved. Solubilizers selected for this study include Transcutol, Labrasol, Tween 80, Cremphor EL, and Kolliphor HS15. Each solubilizer is mixed with water at 10%, 20%, and 30% v/v, respectively, to form a system where amorphous midostaurin power was dissolved.

[4] = Equilibrium solubility of midostaurin in different solvents (HPLC); format: physicochemical; details: thermodynamic from solid, 25° C., 24-72 hours
Procedure: Many different solvents were evaluated for their compatibility with midostaurin. […] Solubility was measured by HPLC.

[5] = Excipient compatibility study (impurities by HPLC); format: physicochemical; details: 1:200 (w/w), 60° C. for 10 days
Procedure: Midostaurin was mixed with many excipients used in topical formulations at 1:200 (w/w) and was placed at 60° C. for 10 days before testing.

SMILES | log P [1] | phototoxicity (edema and erythema at administration site after UV irradiation) [2] | solubility at 24 h [3] [mg/mL] | solubility ([4]; oil or lipid, corn oil, read-out: solubility in corn oil) [mg/mL] | solubility ([4]; oil or lipid, soybean oil, read-out: solubility in soybean oil) [mg/mL] | solubility ([4]; organic solvent or mixture, Labrasol, read-out: solubility in Labrasol) [mg/mL] | solubility ([4]; organic solvent or mixture, Tween 80, read-out: solubility in Tween 80) [mg/mL] | solubility ([4]; organic solvent or mixture, ethanol, read-out: solubility in ethanol) [mg/mL] | solubility ([4]; organic solvent or mixture, glycerol, read-out: solubility in glycerol) [mg/mL] | Impurity results (%) RRT 0.91 [5] [%] | Impurity results (%) RRT 0.93 [5] [%] | Impurity results (%) RRT 0.97 [5] [%] | Impurity results (%) RRT 1.00 (midostaurin assay content) [5] [%] | Impurity results (%) RRT 1.10 [5] [%]
Oc1ccc(O)cc1 [Hydroquinone, hydroquinone] | 1.09 | – | – | – | – | – | – | – | – | – | – | – | – | –
COc1c2occc2cc2ccc(=O)oc12 [Lot 8-MOP] | – | Edema and erythema | – | – | – | – | – | – | – | – | – | – | – | –
CO[C@@H]1[C@H](N(C)C(=O)c2ccccc2)C[C@H]2O[C@]1(C)n1c3ccccc3c3c4c(c5c6ccccc6n2c5c31)C(=O)NC4 [Midostaurin, midostaurin] | 5.27 | – | < 10 | < 10 | < 10 | > 50 | > 50 | < 10 | < 10 | 0.07 | 0.11 | 0.12 | 99.64 | 0.06
